Measurements taken from patent US20190023743A1, “METHODS AND COMPOSITIONS FOR MODULATING DRUG-POLYMER ARCHITECTURE, PHARMACOKINETICS AND BIODISTRIBUTION” (priority 2007, published 2019).

How the values were obtained:
[1] = tested on: C26 colon carcinoma tumor; assay: Survival of tumor-bearing mice, C26 colon carcinoma; assay type: in vivo, Balb/C mice; details: free doxorubicin 12.5, micelle 25 mg drug/kg body weight, sacrificed after >15% body weight loss, Kaplan Meier analysis
Procedure: Eight days after subcutaneous implantation of C26 colon carcinoma tumor cells, Balb/C mice were randomized and treated. The mice were systemically administered either a PBS control or does of approximately equal toxicity of free doxorubicin at 12.5 mg drug/kg body weight or 25 mg drug/kg body weight micelle doxorubicin-ELP. Mice were sacrificed after losing >15% of their body weight due to tumor burden. The treatment groups were blinded during measurement.
The data shown in FIG. 13 were determined as follows: Eight days after subcutaneous implantation of C26 colon carcinoma tumor cells, Balb/C mice were randomized and treated. […] The mice were sacrificed after losing >15% of their body weight due to tumor burden. The treatment groups were blinded during measurement.

[2] = 4 days post administration; free doxorubicin 12.5, micelle 25, unimer 6.3 mg drug/kg body weight; Balb/C mice bearing C26 tumors
Procedure: Animals dosed near the maximum tolerated amount of doxorubicin lose body weight, and weight loss 4 days post doxorubicin administration is used in this experiment as a gross indicator of toxicity. Balb/C mice bearing C26 colon carcinoma tumors were systemically administered PBS, free doxorubicin, micelle doxorubicin-ELP, or unimer doxorubicin-ELP at 0, 12.5, 25, and 6.3 mg drug/kg body weight respectively. […] Error bars indicate the standard deviation (n=5).
The toxicity of doxorubicin-ELP was estimated by body weight loss. Animals that were dosed near the maximum tolerated amount of free doxorubicin, micelle doxorubicin-ELP or unimer doxorubicin-ELP lost body weight, and the weight observed 4 days after the injection of the doxorubicin composition was taken as a gross indicator of toxicity. Balb/C mice bearing C26 colon carcinoma tumors were systemically administered either PBS as a control or free doxorubicin, micelle doxorubicin-ELP, or unimer doxorubicin-ELP at 12.5, 25, and 6.3 mg drug/kg body weight, respectively. […] Error bars indicate the standard deviation (n=5).

SMILES: COc1cccc2c1C(=O)c1c(O)c3c(c(O)c1C2=O)C[C@@](O)(C(=O)CO)C[C@@H]3O[C@H]1C[C@H](N)[C@H](O)[C@H](C)O1 [free doxorubicin, doxorubicin]
- survival time [1]: did not significantly effect survival time
- survival time ([1]; listed as Free doxorubicin): did not have any significant effect on survival
- toxicity estimated by body weight loss [2]: approximately equally toxic
